Test results as given in US7368578B2, “Five-membered heterocyclic compounds” (Takeda Pharmaceutical Company Limited, priority 2002, dated 2008).

| SMILES | melting point |
| --- | --- |
| CCc1nc(/C=C/c2cn(-c3ccccc3)nc2OCc2ccc(OCc3nc(-c4ccco4)oc3C)c(OC)c2)cs1 [Example 152 (E form), 4-({4-[({4-[(E)-2-(2-ethyl-1,3-thiazol-4-yl)ethenyl]-1-phenyl-1H-pyrazol-3-yl}oxy)methyl]-2-methoxyphenoxy}methyl)-2-(2-furyl)-5-methyl-1,3-oxazole] | 108 to 109 °C |
| CCOP(=O)(/C=C/c1cn(-c2ccccc2)nc1OCc1ccc(OCc2nc(-c3ccco3)oc2C)nc1)OCC | 134 to 135 °C |
| CCCc1nnc(/C=C/c2nc(-c3ccccc3)oc2COc2ccc(OCc3nc(-c4ccccc4)oc3C)cc2)o1 [Example 133, 2-{(E)-2-[5-({4-[(5-methyl-2-phenyl-1,3-oxazol-4-yl)methoxy]phenoxy}methyl)-2-phenyl-1,3-oxazol-4-yl]ethenyl}-5-propyl-1,3,4-oxadiazole] | 119 to 120 °C |
| CCOC(=O)C1CCN(c2nc(COc3ccc(COc4nn(-c5ccccc5)cc4C=O)cc3OC)c(C)s2)CC1 [Example 324, ethyl 1-(4-[(4-{[(4-formyl-1-phenyl-1H-pyrazol-3-yl)oxy]methyl}-2-methoxyphenoxy)methyl]-5-methyl-1,3-thiazol-2-yl}piperidine-4-carboxylate] | 126 to 127 °C |
| COc1cc(COc2nn(-c3ccccc3)cc2C=O)ccc1OCc1csc(N2CCCCC2)n1 [Example 196, 3-({3-methoxy-4-[(2-piperidin-1-yl-1,3-thiazol-4-yl)methoxy]benzyl}oxy)-1-phenyl-1H-pyrazole-4-carbaldehyde] | 123 to 124 °C |
| CCOP(=O)(/C=C/c1cn(-c2ccccc2)nc1OCc1ccc(OCc2nc(-c3cccc(O)c3)oc2C)c(OC)c1)OCC | 127 to 128 °C |
| COc1cc(COc2nn(-c3ccccc3)cc2/C=C2\SC(=O)NC2=O)ccc1OCc1nc(-c2ccco2)oc1C [Example 262, (5Z)-5-({3-[(4-{[2-(2-furyl)-5-methyl-1,3-oxazol-4-yl]methoxy}-3-methoxybenzyl)oxy]-1-phenyl-1H-pyrazol-4-yl}methylene)-1,3-thiazolidine-2,4-dione] | 252 to 253 °C |
| CCOC(=O)c1cn(C)nc1OCc1ccc(OCc2nc(-c3ccco3)oc2C)c(OC)c1 [Example 171, ethyl 3-[(4-{[2-(2-furyl)-5-methyl-1,3-oxazol-4-yl]methoxy}-3-methoxybenzyl)oxy]-1-methyl-1H-pyrazole-4-carboxylate] | 117 to 118 °C |
| CCOP(=O)(/C=C/c1cn(-c2ccccc2)nc1OCc1ccc(OCc2nc(-c3ccco3)oc2C)c(C(=O)O)c1)OCC | 169 to 170 °C |
| CCOP(=O)(/C=C/c1cn(-c2ccccc2)nc1OCc1ccc(OCc2nc(-c3cccc(C(=O)O)c3)oc2C)cc1)OCC | 153 to 155 °C |
| COc1cc(COc2cc(Cn3cncn3)n(-c3ccccc3)n2)ccc1OCc1nc(-c2ccco2)oc1C [Example 143, 1-({3-[(4-{[2-(2-furyl)-5-methyl-1,3-oxazol-4-yl]methoxy}-3-methoxybenzyl)oxy]-1-phenyl-1H-pyrazol-5-yl}methyl)-1H-1,2,4-triazole] | 95 to 96 °C |
| COc1cc(COc2nn(C)cc2/C=C\c2cscn2)ccc1OCc1nc(-c2ccco2)oc1C [Example 167 (Z form), 2-(2-furyl)-4-({2-methoxy-4-[({1-methyl-4-[(Z)-2-(1,3-thiazol-4-yl)ethenyl]-1H-pyrazol-3-yl}oxy)methyl]phenoxy}methyl)-5-methyl-1,3-oxazole] | 97 to 98 °C |
| COc1cc(COc2nn(-c3ccccc3)cc2/C=C/CO)ccc1OCc1nc(-c2ccco2)oc1C [Example 108, (2E)-3-{3-[(4-([2-(2-furyl)-5-methyl-1,3-oxazol-4-yl]methoxy}-3-methoxybenzyl)oxy]-1-phenyl-1H-pyrazol-4-yl}-2-propen-1-ol] | 120 to 121 °C |
| CCOC(=O)c1cn(CC)nc1OCc1ccc(OCc2nc(-c3ccco3)oc2C)c(OC)c1 [Example 172, ethyl 1-ethyl-3-[(4-{[2-(2-furyl)-5-methyl-1,3-oxazol-4-yl]methoxy}-3-methoxybenzyl)oxy]-1H-pyrazole-4-carboxylate] | 114 to 115 °C |
| COC(=O)c1ccc(-c2nc(COc3ccc(COc4nn(-c5ccccc5)cc4C=O)cc3OC)c(C)o2)cc1 [Example 209, methyl 4-{4-[(4-{[(4-formyl-1-phenyl-1H-pyrazol-3-yl)oxy]methyl}-2-methoxyphenoxy)methyl]-5-methyl-1,3-oxazol-2-yl}benzoate] | 190 to 191 °C |
| CCOP(=O)(/C=C/C=C/c1cn(-c2ccccc2)nc1OCc1ccc(OCc2nc(-c3ccco3)oc2C)c(OC)c1)OCC | 143 to 144 °C |
| Cc1oc(-c2ccccc2)nc1COc1ccc(OCc2oc(-c3ccccc3)nc2CO)cc1 [Example 93, [5-({4-[(5-methyl-2-phenyl-1,3-oxazol-4-yl)methoxy]phenoxy}methyl)-2-phenyl-1,3-oxazol-4-yl]methanol] | 143 to 144 °C |

| SMILES | melting point |
| --- | --- |
| CCCc1nnc(/C=C/c2cc(OCc3ccc(OCc4nc(-c5ccco5)oc4C)c(OC)c3)nn2-c2ccccc2)o1 [Example 138, 2-((E)-2-{3-[(4-{[2-(2-furyl)-5-methyl-1,3-oxazol-4-yl]methoxy}-3-methoxybenzyl)oxy]-1-phenyl-1H-pyrazol-5-yl}ethenyl)-5-propyl-1,3,4-oxadiazole] | 107 to 108 °C |
| COc1cc(COc2nn(-c3ccccc3)cc2/C=C/c2nc(N3CCOCC3)sc2C)ccc1OCc1nc(-c2cccc(C(=O)O)c2)oc1C [Example 310, 3-[4-({2-methoxy-4-[({4-[(E)-2-(5-methyl-2-morpholin-4-yl-1,3-thiazol-4-yl)ethenyl]-1-phenyl-1H-pyrazol-3-yl}oxy)methyl]phenoxy)methyl)-5-methyl-1,3-oxazol-2-yl]benzoic acid] | 215 to 217 °C (dec.) |
| CCOP(=O)(/C=C\c1cnc(-c2ccccc2)nc1OCc1ccc(OCc2nc(-c3ccco3)oc2C)c(OC)c1)OCC | 154 to 155 °C |
| CCOc1cc(COc2nn(-c3ccccc3)cc2/C=C/P(=O)(OCC)OCC)ccc1OCc1nc(-c2ccco2)oc1C | 117 to 118 °C |
| CCOP(=O)(/C=C/c1cnc(-c2ccccc2)nc1OCc1ccc(OCc2nc(-c3ccco3)oc2C)c(OC)c1)OCC | 103 to 104 °C |
| CCOC(=O)Cc1ccc(-c2nc(COc3ccc(COc4nn(-c5ccccc5)cc4/C=C/c4nc(N5CCCCC5)sc4C)cc3OC)c(C)o2)cc1 [Example 382, ethyl [4-{4-[(2-methoxy-4-{[(4-{(E)-2-[5-methyl-2-(piperidin-1-yl)-1,3-thiazol-4-yl]ethenyl}-1-phenyl-1H-pyrazol-3-yl)oxy]methyl}phenoxy)methyl]-5-methyl-1,3-oxazol-2-yl}phenyl]acetate] | 131 to 132 °C |
| COc1cc(COc2nn(-c3ccccc3)cc2C=O)ccc1OCc1nc(N2CCOCC2)sc1C [Example 238, 3-({3-methoxy-4-[(5-methyl-2-morpholin-4-yl-1,3-thiazol-4-yl)methoxy]benzyl}oxy)-1-phenyl-1H-pyrazole-4-carbaldehyde] | 149 to 150 °C |
| CCc1nc(/C=C/c2cn(-c3ccccc3)nc2OCc2ccc(OCc3nc(-c4cccc(C(=O)OC)c4)oc3C)c(OC)c2)cs1 [Example 225 (E form), methyl 3-[4-({4-[({4-[(E)-2-(2-ethyl-1,3-thiazol-4-yl)ethenyl]-1-phenyl-1H-pyrazol-3-yl}oxy)methyl]-2-methoxyphenoxy}methyl)-5-methyl-1,3-oxazol-2-yl]benzoate] | 132 to 133 °C |
| COc1cc(CN(C)c2nn(-c3ccccc3)cc2C=O)ccc1OCc1nc(-c2ccco2)oc1C [Example 349, 3-([4-{[2-(2-furyl)-5-methyl-1,3-oxazol-4-yl]methoxy}-3-methoxybenzyl](methyl)amino)-1-phenyl-1H-pyrazole-4-carbaldehyde] | 101 to 102 °C |
| COc1cc(COc2nn(-c3ccccc3)cc2C=C(C#N)C#N)ccc1OCc1nc(-c2ccco2)oc1C [Example 96, ({3-[(4-{[2-(2-furyl)-5-methyl-1,3-oxazol-4-yl]methoxy}-3-methoxybenzyl)oxy]-1-phenyl-1H-pyrazol-4-yl)methylene) malononitrile] | 190 to 191 °C |
| CCOC(=O)Cc1ccc(-c2nc(COc3ccc(COc4nn(-c5ccccc5)cc4/C=C/c4coc(CC)n4)cc3OC)c(C)o2)cc1 [Example 366, ethyl {4-[4-({4-[({4-[(E)-2-(2-ethyl-1,3-oxazol-4-yl)ethenyl]-1-phenyl-1H-pyrazol-3-yl}oxy)methyl]-2-methoxyphenoxy}methyl)-5-methyl-1,3-oxazol-2-yl]phenyl}acetate] | 155 to 157 °C |
| CCOC(=O)/C=C/c1nc(COc2ccc(COc3nn(-c4ccccc4)cc3/C=C\c3csc(CC)n3)cc2OC)c(C)o1 [Example 322 (Z form), ethyl (2E)-3-[4-({4-[({4-[(Z)-2-(2-ethyl-1,3-thiazol-4-yl)ethenyl]-1-phenyl-1H-pyrazol-3-yl}oxy)methyl]-2-methoxyphenoxy}methyl)-5-methyl-1,3-oxazol-2-yl]-2-propenoate] | 119 to 120 °C |
| COc1cc(COc2nn(-c3ccccc3)cc2/C=C/c2nnc(C)o2)ccc1OCc1nc(-c2ccco2)oc1C [Example 125, 2-((E)-2-{3-[(4-{[2-(2-furyl)-5-methyl-1,3-oxazol-4-yl]methoxy}-3-methoxybenzyl)oxy]-1-phenyl-1H-pyrazol-4-yl}ethenyl)-5-methyl-1,3,4-oxadiazole] | 186 to 187 °C |
| Cc1oc(-c2ccccc2)nc1COc1ccc2c(-c3ccccc3)c(COc3nn(-c4ccccc4)cc3C(=O)O)oc2c1 [Example 65, 3-({6-[(5-methyl-2-phenyl-1,3-oxazol-4-yl)methoxy]-3-phenyl-1-benzofuran-2-yl}methoxy)-1-phenyl-1H-pyrazole-4-carboxylic acid] | 200 to 201 °C |
| COc1cc(COc2nn(Cc3ccccc3)cc2C(=O)O)ccc1OCc1nc(-c2ccccc2)oc1C [Example 2, 1-benzyl-3-({3-methoxy-4-[(5-methyl-2-phenyl-1,3-oxazol-4-yl)methoxy]benzyl}oxy)-1H-pyrazole-4-carboxylic acid] | 162 to 163 °C |
| COc1cc(COc2cc(CO)n(-c3ccccc3)n2)ccc1OCc1nc(-c2ccccc2)oc1C [Example 293, (3-{[3-methoxy-4-(5-methyl-2-phenyl-1,3-oxazol-4-ylmethoxy)benzyl]oxy}-1-phenyl-1H-pyrazol-5-yl)methanol] | 146 to 147 °C |
